Structures are written as SMILES.

Results on four molecules are retold here after US20210386841A1, “COMPOSITIONS FOR TRANSFECTING mRNA INTO A CELL AND THEIR APPLICATIONS” (POLYPLUS TRANSFECTION, priority 2018, published 2021).

In series [1] the test system is BJ human skin fibroblast cells. In words: eGFP mRNA transfection, BJ cells (96-well). It is filed as cell-based. The settings on record: co-lipid DOPE, ratio 1/2; 150 ng eGFP mRNA; 24 h. Here is the method:
BJ (ATCC® CRL-2522™) human skin fibroblast cells were grown in Eagle's Minimum Essential Medium with 10% FBS and supplemented with 1% non-essential amino acids, 1 mM sodium pyruvate, 2 mM glutamine and 100 U/mL of penicillin and 100 μg/mL of streptomycin at 37° C. in a 5% CO2 in air atmosphere.
(§1) mRNA eGFP (996 nt, reference L-6101) from TriLink Technologies was used for the in vitro transfection experiments and expressed enhanced green fluorescent protein which is a common reporter gene (eGFP). This mRNA was capped with a Cap 0, polyadenylated and modified with 5-methylcytidine and pseudo-uridine.
(§2) One day before transfection, Caco-2, THP-1 or BJ Cells were seeded at 10 000, 25 000, or 5 000 cells per well (96-well plate format), respectively, in 125 μL of their respective complete medium and incubated at 37° C. in a 5% CO2 in air atmosphere. For Jurkat cells, 25 000 cells were seeded per well prior transfection. On the day of transfection 150 ng of mRNA was added in 11.5 μL of 5% glucose solution, mixed with a vortex and incubated for 5 minutes at rt. Then, 1 μL of 1 mM cationic liposomal formulation was added onto the diluted mRNA, mixed with a vortex and incubated for 15 minutes at rt. The formulated mRNA solution (12.5 μL) was added into the well and the plate was incubated for 24 hours at 37° C. in a 5% CO2 in air atmosphere.
(§3) For the GFP expression analysis, the cell culture medium was removed for the adherent cells and 50 μL of trypsin-EDTA (1×, Lonza) was added and the plate was incubated for 5 minutes at 37° C. 150 μL of complete medium were added to neutralize the trypsin, and the GFP expression was analysed (2000 events) by flow cytometry (Exc 488 nm, Em 520 nm) using a Guava easyCyte 6HT cytometer (Millipore).
(§4) All these new liposomal formulations (Table 1) were assessed to deliver mRNA expressing an enhanced green fluorescent protein (eGFP) as reporter gene in order to determine the gene expression and the transfection efficiency (Table 2). mRNA eGFP capped with a Cap 0 in 5′-end, polyadenylated in 3′-end and modified with 5-methylcytidine and pseudo-uridine was used in the transfection assay. The transfection assay was performed as described in the Experimental section where 150 ng of mRNA eGFP was complexed with 1 μL of 1 mM cationic liposomal formulations in a 5% glucose solution before the addition on the cells. One day post-transfection, the eGFP expression was analyzed by flow cytometry to determine the percentage of transfection. Four different cell lines were used in this assay from easy to transfect cells to hard to transfect cells with plasmid DNA, including human BJ skin fibroblast cells, THP-1 human peripheral blood monocytes, Caco-2 human colon epithelial cells and Jurkat Clone E6-1 human T lymphoblast cells, respectively.

Series [2] concerns Jurkat Clone E6-1 human T lymphoblast cells. In words: eGFP mRNA transfection, Jurkat cells (96-well). It is filed as cell-based. The settings on record: co-lipid DOPE, ratio compound/co-lipid 1/2; 150 ng eGFP mRNA, 1 μL of 1 mM formulation; 24 h, flow cytometry. Here is the method:
Jurkat Clone E6-1 (ATCC® TIB-152™) human T lymphoblast cells were grown in RPMI-1640 (LONZA) with 10% of FBS (EUROBIO) and supplemented with 2 mM Glutamine (LONZA), 100 U/mL of penicillin and 100 μg/mL of streptomycin (LONZA) at 37° C. in a 5% CO2 in air atmosphere.
as §1, §2, §3, §4
(A flow cytometer gives signals particle by particle.)

Series [3] has as its system BJ, THP-1, Caco-2 and Jurkat cells. Put plainly: eGFP mRNA transfection, overall statements on the four cell lines. It is filed as cell-based, human. As to conditions: formulated with co-lipid DOPE or DPyPE. Here is the method:
as §1, §2, §3, §4

In series [4] the test system is THP-1 human peripheral blood monocyte cells. Put plainly: eGFP mRNA transfection, THP-1 cells (96-well). It is filed as cell-based. As to conditions: co-lipid DOPE, ratio 1/2; 150 ng eGFP mRNA; 24 h. Here is the method:
THP-1 (ATCC® TIB-202™) human peripheral blood monocyte cells were grown in RPMI-1640 with 10% FBS and supplemented with 10 mM HEPES buffer, 1 mM sodium pyruvate, 0.05 mM 2-mercaptoethanol, 2 mM glutamine, 100 U/mL of penicillin and 100 μg/mL of streptomycin at 37° C. in a 5% CO2 in air atmosphere.
as §1, §2, §3, §4

Series [5] deals with Caco-2 human colon epithelial cells. In words: eGFP mRNA transfection, Caco-2 cells (96-well). The settings on record: co-lipid DOPE, ratio 1/2; 150 ng eGFP mRNA; 24 h. It counts as cell-based. Here is the method:
Caco-2 (ATCC® HTB-37™) human colon epithelial cells were grown in DMEM 4.5 g/L glucose with 20% FBS supplemented with 1% non-essential amino acids, 1 mM sodium pyruvate, 2 mM glutamine and 100 U/mL of penicillin and 100 μg/mL of streptomycin at 37° C. in a 5% CO2 in air atmosphere.
as §1, §2, §3, §4

Take `CCCCCCCCCCCCCCCCCCC(CCCCC(CCCCCCCCCCCCCC)CCCCCCCCCCCCCC)[n+]1ccn(CCO)c1.[Cl-]` (centres unmarked) [Compound W25.7, 1-(2-hydroxyethyl)-3-(24-tetradecyloctatriacontan-19-yl)-1H-imidazol-3-ium chloride]: the “Transfection efficiency (eGFP %) BJ” value in series [1] is on record as 90-95%. The “Transfection efficiency (eGFP %) Jurkat” value in series [2] is given as 25-35%. In addition, the “transfection activity (in words)” value in series [3] is reported as “without really affecting the transfection activity”. In series [4], the “Transfection efficiency (eGFP %) THP-1” value was 80-85%. In addition, in series [5], the “Transfection efficiency (eGFP %) CaCO2” value is recorded as 45-55%.

Take `CCCCCCCCCCCCCCC(CCCCCCCCCCCCCC)CCCCC(CCCCCCCCCCCCCC)[n+]1ccn(CCO)c1.[Cl-]` (centres unmarked) [Compound W26.7, 1-(2-hydroxyethyl)-3-(20-tetradecyltetratriacontan-15-yl)-1H-imidazol-3-ium chloride]: the “Transfection efficiency (eGFP %) BJ” value in series [1] is listed as 90-95%. In series [2], the “Transfection efficiency (eGFP %) Jurkat” value is 10-15%. The “transfection activity (in words)” value in series [3] is “without really affecting the transfection activity”. For the same molecule, the “Transfection efficiency (eGFP %) THP-1” value in series [4] is recorded as 70-80%. For the same molecule, the “Transfection efficiency (eGFP %) CaCO2” value in series [5] was 50-55%.

As for `CCCCCCCC/C=C\CCCCCCCCC(CCCCC(CCCCCCCCCCCCCC)CCCCCCCCCCCCCC)[n+]1ccn(CC)c1.[Cl-]` (centres unmarked) [Compound W27.7, 1-ethyl-3-(24-tetradecyloctatriacont-9-en-19-yl)-1H-imidazol-3-ium chloride], the “Transfection efficiency (eGFP %) BJ” value in series [1] is given as 90-95%. For the same molecule, the “Transfection efficiency (eGFP %) Jurkat” value in series [2] is reported as 5-10%. In addition, in series [3], the “transfection activity (in words)” value is listed as “without really affecting the transfection activity”. Besides, the “Transfection efficiency (eGFP %) THP-1” value in series [4] is listed as 40-50%. In series [5], the “Transfection efficiency (eGFP %) CaCO2” value is 65-75%.

In the case of `CCCCCCCCCCCCCCCCCCC(CCCC(CCCCCCCCCCCCCC)CCCCCCCCCCCCCC)[n+]1ccn(C)c1.[Cl-]` (centres unmarked) [Compound W28.7, 1-methyl-3-(15-tetradecylheptatriacontan-19-yl)-1H-imidazol-3-ium chloride], in series [1], the “Transfection efficiency (eGFP %) BJ” value was 90-95%. Besides, the “Transfection efficiency (eGFP %) Jurkat” value in series [2] is 15-25%. In series [3], the “transfection activity (in words)” value is “without really affecting the transfection activity”. The “Transfection efficiency (eGFP %) THP-1” value in series [4] is 80-85%. For the same molecule, the “Transfection efficiency (eGFP %) CaCO2” value in series [5] is 40-45%.
